We go through four molecules from patent US9150531B2, “Tricyclic lactones for treatment of cancer” (Glactone Pharma Development AB, priority 2010, dated 2015).

pIC50: −log10 of the molar value.

In test [1] the test system is STAT-3 transcription factor. Briefly: STAT3 inhibition, luciferase reporter (4xM67 pTATA TK-Luc) in HeLa cells stimulated with γ-Interferon. The test is classed as cell-based. The settings on record: Homo sapiens, γ-Interferon 8 h, luciferase activity, read-out: Anti STAT3 IC50. The method, then:
HeLa cells (4×10^4/ml) were transiently transfected with a luciferase reporter plasmid (4×M67 pTATA TK-Luc) driven by artificial promoter containing 4 repeated M67 binding sites in tandem for the STAT-3 transcription factor. The transfections were performed for 24 h using Roti-Fect reagent (Carl Roth, Karlsruhe, Germany) according to the manufacturer's recommendations. After incubation with different concentrations of the extracts for 30 min the transfected cells were stimulated for 8 h with γ-Interferon. Then, the cells were lysed in 25 mM Tris-phosphate pH 7.8, 8 mM MgCl2, 1 mM DTT, 1% Triton X-100, and 7% glycerol. Luciferase activity was measured as described for 5.1 cells.
γ-Interferon induces an average of 5-6 fold induction of the luciferase activity compared to non stimulated cells and this represent the index of transactivation that is represented in our experiment as the maximum levels of γ-Interferon-induced STAT-3 activation (100%). Results below represent the IC50 for each compound in this assay. The IC50 means the concentration of each compound that reduces luciferase activity by 50% and it was calculated by GraphPad software.

Another test relates to LNCaP-IL6 cells. Put plainly: WST-1 proliferation assay, LNCaP-IL6 cells. It counts as cell-based, human. As to the method:
(§1) The human prostate cancer cell lines DU145, LNCaP (from the American Type culture Collection, ATCC) and long-term interleukin-6 (IL-6) stimulated LNCaP cells (LNCaP-IL6 cells) (Hobisch, Ramoner et al. 2001) were used. The cells were cultured in RPMI 1640 medium supplemented with 10% FBS and 1% penicillin-streptomycin. All cells were incubated at 37° C. in a humidified atmosphere of […] and 5% CO2.
(§2) WST-1 proliferation assay was performed to study the effects of the test items on the proliferation and viability of cultured prostate cancer cells. LNCaP and DU145 cells were cultured in 96-well plates at the density of 2 000 cells/well in 200 μl of medium. Cells were allowed to set for 24 h. The cells were treated with 0, 2.5, 5 or 10 μM of the specific substance for 24 h and 48 h. Samples were made in triplicate. 20 μl WST-1 solution (Roche Applied Science, Mannheim, Germany) was added per well and incubated at 37° C. for 4 h. The absorbance of each well was measured using a scanning multiwell spectrophotometer, ELISA reader at a wavelength of 450 nm and reference wavelength of 690 nm. The results are presented as percent of untreated control cells or the absorbance value.

In a further test the test system is DU145. Briefly: WST-1 proliferation assay, DU145 cells (Example 16). It counts as cell-based, human. As to the method: as §1, §2

Consider `COC(=O)C1=C[C@H](C)C[C@H]2C[C@H](Cc3ccccc3)[C@@H]3O[C@]123` (stereo in doubt) [Example 10, methyl 2-benzyl-5-methyl-1a,2,3,3a,4,5-hexahydroindeno[1,7a-b]oxirene-7-carboxylate], for which the pIC50 in test [1] was 5.53. Besides, the “% Proliferation (vs control) 24 h LNCaP-IL6” value with LNCaP-IL6 cells (2.5 uM) is 81.18%; in the test with LNCaP-IL6 cells (5 uM), 92.69%; with LNCaP-IL6 cells (10 uM), 76.05%. For the same molecule, the “% Proliferation (vs control) 48 h LNCaP-IL6” value with LNCaP-IL6 cells (2.5 uM) was 74.81%; in the test on LNCaP-IL6 cells (5 uM), 80.02%; in the test on LNCaP-IL6 cells (10 uM), 23.18%. The figures for the “% Proliferation (vs control) 24 h DU145” value in the test on DU145 (2.5 uM), in the test on DU145 (5 uM) and in the test on DU145 (10 uM) were 86.82%, 98.85% and 66.76%, respectively. Further, the “% Proliferation (vs control) 48 h Du145” value in the test on DU145 (2.5 uM) is on record as 88.02%; with DU145 (5 uM), 92.54%; in the test on DU145 (10 uM) it was 28.27%.

For the molecule `COC(=O)C1=C[C@H](C)C[C@H]2CC(C)(C)[C@@H]3O[C@]123` (stereo in doubt) [Example 11, methyl 2,2,5-trimethyl-1a,2,3,3a,4,5-hexahydroindeno[1,7a-b]oxirene-7-carboxylate], the pIC50 in test [1] is 5.60. For the same molecule, the “% Proliferation (vs control) 24 h LNCaP-IL6” value in the test with LNCaP-IL6 cells (2.5 uM) was 93.47%; with LNCaP-IL6 cells (5 uM), 89.35%; with LNCaP-IL6 cells (10 uM), 79.82%. Further, the “% Proliferation (vs control) 48 h LNCaP-IL6” value in the test on LNCaP-IL6 cells (2.5 uM) worked out at 78.36%; in the test with LNCaP-IL6 cells (5 uM), 71.85%; in the test with LNCaP-IL6 cells (10 uM) it was 31.62%. In addition, the results for the “% Proliferation (vs control) 24 h DU145” value in the test with DU145 (2.5 uM), with DU145 (5 uM) and in the test with DU145 (10 uM) were 93.88%, 80.42% and 72.14%, respectively. For the same molecule, the “% Proliferation (vs control) 48 h Du145” value is 85.06% in the test with DU145 (2.5 uM), 67.77% in the test with DU145 (5 uM) and 45.51% in the test with DU145 (10 uM).

Consider `COC(=O)C1=C[C@H](C)C[C@H]2C[C@H](c3ccccc3)[C@@H]3O[C@]123` (stereo in doubt) [Example 7, methyl 5-methyl-2-phenyl-1a,2,3,3a,4,5-hexahydroindeno[1,7a-b]oxirene-7-carboxylate], for which, in test [1], the pIC50 was 5.74. Moreover, the entries for the “% Proliferation (vs control) 24 h LNCaP-IL6” value with LNCaP-IL6 cells (2.5 uM), with LNCaP-IL6 cells (5 uM) and in the test with LNCaP-IL6 cells (10 uM) were 81.79%, 81.21% and 70.45%, respectively. Besides, the “% Proliferation (vs control) 48 h LNCaP-IL6” value worked out at 82.60% in the test with LNCaP-IL6 cells (2.5 uM), 85.26% with LNCaP-IL6 cells (5 uM) and 71.27% in the test on LNCaP-IL6 cells (10 uM). For the same molecule, the “% Proliferation (vs control) 24 h DU145” value with DU145 (2.5 uM) was 90.64%; in the test on DU145 (5 uM), 68.55%; with DU145 (10 uM) it was 63.86%. Besides, the “% Proliferation (vs control) 48 h Du145” value in the test with DU145 (2.5 uM) was found to be 95.09%; in the test on DU145 (5 uM), 75.05%; in the test with DU145 (10 uM), 76.58%.

As for `COC(=O)C1=C[C@H](C)C[C@H]2C[C@@H](Cc3ccccc3)[C@@H]3O[C@]123` (stereo in doubt) [Example 9, methyl 2-benzyl-5-methyl-1a,2,3,3a,4,5-hexahydroindeno[1,7a-b]oxirene-7-carboxylate], the pIC50 in test [1] is 5.70. The “% Proliferation (vs control) 24 h LNCaP-IL6” value with LNCaP-IL6 cells (2.5 uM) is 92.78%; in the test on LNCaP-IL6 cells (5 uM), 90.02%; in the test on LNCaP-IL6 cells (10 uM), 96.73%. In addition, the figures for the “% Proliferation (vs control) 48 h LNCaP-IL6” value in the test with LNCaP-IL6 cells (2.5 uM), with LNCaP-IL6 cells (5 uM) and in the test on LNCaP-IL6 cells (10 uM) were 104.12%, 108.49% and 96.48%, respectively. Further, the “% Proliferation (vs control) 24 h DU145” value in the test with DU145 (2.5 uM) was found to be 96.36%; with DU145 (5 uM), 88.29%; with DU145 (10 uM) it was 75.01%. Also, the “% Proliferation (vs control) 48 h Du145” value is 93.96% with DU145 (2.5 uM), 85.24% with DU145 (5 uM) and 55.43% in the test with DU145 (10 uM).
